Measurements taken from DBAASP.
Values after ≈ are worked out from the molar mass of the structure shown. Each block holds one molecule with its values, some of them ahead of it.

Experiments:
Assay in all cases: ≥ marks a high value that may be exact or a test limit, other limits are often not marked, values filed in µg/mL are converted to µM
[1] = system: Staphylococcus aureus ATCC 25923
[2] = system: Salmonella enterica serovar Typhimurium
Escherichia coli UB1005 = system: Escherichia coli UB1005
[3] = system: Staphylococcus epidermidis
[4] = system: Enterococcus faecalis ATCC 29212
Candida albicans = system: Candida albicans
[5] = system: Pseudomonas aeruginosa H103
[6] = system: Escherichia coli ATCC 25726
[7] = system: Pseudomonas aeruginosa Ps4
[8] = system: Escherichia coli ATCC 25922
[9] = system: Pseudomonas aeruginosa PAO1
Klebsiella pneumoniae = system: Klebsiella pneumoniae
Pseudomonas aeruginosa = system: Pseudomonas aeruginosa
Acinetobacter baumannii = system: Acinetobacter baumannii
Staphylococcus aureus = system: Staphylococcus aureus
Escherichia coli = system: Escherichia coli
Enterococcus faecalis = system: Enterococcus faecalis

MIC [7]: ≥ 179 µM
Compound: CC[C@H](C)[C@H](NC(=O)[C@H](CC(N)=O)NC(=O)[C@H](CCCN=C(N)N)NC(=O)[C@H](CCC(N)=O)NC(=O)[C@H](Cc1c[nH]c2ccccc12)NC(=O)[C@@H](N)Cc1ccccc1)C(=O)N[C@@H](Cc1ccccc1)C(=O)N[C@@H](CCCCN)C(=O)N[C@H](C(=O)N[C@@H](CCCN=C(N)N)C(N)=O)C(C)C [FWQRNIFKVR]

MIC [7]: ≥ 176 µM
Compound: CC[C@H](C)[C@H](NC(=O)[C@H](CC(N)=O)NC(=O)[C@H](CCCN=C(N)N)NC(=O)[C@H](CCC(N)=O)NC(=O)[C@H](Cc1c[nH]c2ccccc12)NC(=O)[C@@H](N)Cc1ccccc1)C(=O)N[C@@H](CCCN=C(N)N)C(=O)N[C@@H](Cc1ccccc1)C(=O)N[C@H](C(=O)N[C@@H](CCCN=C(N)N)C(N)=O)C(C)C [FWQRNIRFVR]

MIC [7]: ≥ 83.9 µM | MIC [8]: 83.9 µM (≈ 125 µg/mL)
Compound: CC[C@H](C)[C@H](NC(=O)[C@H](CC(N)=O)NC(=O)[C@H](CCCN=C(N)N)NC(=O)[C@H](CCC(N)=O)NC(=O)[C@H](Cc1c[nH]c2ccccc12)NC(=O)[C@@H](N)Cc1ccccc1)C(=O)N[C@@H](CCCN=C(N)N)C(=O)N[C@@H](CCCCN)C(=O)N[C@@H](Cc1c[nH]c2ccccc12)C(=O)N[C@@H](CCCN=C(N)N)C(N)=O [FWQRNIRKWR]

MIC [7]: ≥ 165 µM
Compound: CC[C@H](C)[C@H](NC(=O)[C@H](CC(N)=O)NC(=O)[C@H](CCCN=C(N)N)NC(=O)[C@H](CCC(N)=O)NC(=O)[C@H](Cc1c[nH]c2ccccc12)NC(=O)[C@@H](N)Cc1ccccc1)C(=O)N[C@@H](CCCN=C(N)N)C(=O)N[C@@H](Cc1c[nH]c2ccccc12)C(=O)N[C@@H](CCCN=C(N)N)C(=O)N[C@@H](CCCN=C(N)N)C(N)=O [FWQRNIRWRR]

MIC [7]: ≥ 187 µM
Compound: CC[C@H](C)[C@H](NC(=O)[C@H](CC(N)=O)NC(=O)[C@H](CCCN=C(N)N)NC(=O)[C@H](CCC(N)=O)NC(=O)[C@H](Cc1c[nH]c2ccccc12)NC(=O)[C@@H](N)Cc1ccccc1)C(=O)N[C@@H](CO)C(=O)N[C@@H](CCCCN)C(=O)N[C@H](C(=O)N[C@@H](CCCN=C(N)N)C(N)=O)C(C)C [FWQRNISKVR]

MIC [7]: ≥ 94.9 µM
Compound: CC[C@H](C)[C@H](NC(=O)[C@H](CCCN=C(N)N)NC(=O)[C@@H](NC(=O)[C@H](CC(N)=O)NC(=O)[C@H](CCCN=C(N)N)NC(=O)[C@H](Cc1c[nH]c2ccccc12)NC(=O)[C@@H](N)Cc1ccccc1)[C@@H](C)CC)C(=O)N[C@@H](CCCN=C(N)N)C(=O)N[C@@H](CCCN=C(N)N)C(N)=O [FWRNIRIRR]

MIC [1]: 3.69 µM (≈ 6 µg/mL) | MIC [2]: 1.84 µM (≈ 3 µg/mL) | MIC (Escherichia coli UB1005): 0.983 µM (≈ 1.6 µg/mL) | MIC [3]: 0.492 µM (≈ 0.8 µg/mL) | MIC [9]: 7.38 µM (≈ 12 µg/mL) | MIC (Candida albicans): 7.38 µM (≈ 12 µg/mL) | MIC [5]: 3.69 µM (≈ 6 µg/mL)
Compound: CC[C@H](C)[C@H](NC(=O)[C@H](CCCN=C(N)N)NC(=O)[C@H](Cc1ccccc1)NC(=O)[C@H](CCCN=C(N)N)NC(=O)[C@@H](N)CCCCN)C(=O)N[C@@H](CCCN=C(N)N)C(=O)N[C@H](C(=O)N[C@@H](CCCN=C(N)N)C(=O)N[C@H](C(=O)N[C@H](C(=O)N[C@@H](CCCN=C(N)N)C(=O)N[C@@H](CCCCN)C(N)=O)[C@@H](C)CC)C(C)C)C(C)C [KRFRIRVRVIRK]

Continued, molecule first:

Compound: CC[C@H](C)[C@H](NC(=O)[C@@H](N)Cc1ccccc1)C(=O)N[C@@H](CCCCN)C(=O)N[C@@H](Cc1c[nH]c2ccccc12)C(=O)N[C@@H](CCCCN)C(=O)N[C@@H](Cc1ccccc1)C(=O)N[C@@H](CCCN=C(N)N)C(=O)N[C@@H](Cc1c[nH]c2ccccc12)C(=O)N[C@@H](Cc1c[nH]c2ccccc12)C(=O)N[C@@H](CCCCN)C(=O)N[C@@H](Cc1c[nH]c2ccccc12)C(=O)N[C@@H](CCCN=C(N)N)C(=O)N[C@@H](CCCCN)C(=O)O [FIKWKFRWWKWRK]
MIC [1]: 0.7 µM (≈ 1.4 µg/mL) | MIC [2]: 1.5 µM (≈ 2.99 µg/mL) | MIC (Escherichia coli UB1005): 1.5 µM (≈ 2.99 µg/mL) | MIC [3]: 0.7 µM (≈ 1.4 µg/mL) | MIC [4]: 1.5 µM (≈ 2.99 µg/mL) | MIC (Candida albicans): 3 µM (≈ 5.99 µg/mL) | MIC [5]: 6 µM (≈ 12 µg/mL)

Compound: CC[C@H](C)[C@H](NC(=O)CNC(=O)CNC(=O)[C@H](CCCCN)NC(=O)[C@H](Cc1ccccc1)NC(=O)[C@H](Cc1ccccc1)NC(=O)[C@H](CCCCN)NC(=O)[C@H](CCCCN)NC(=O)[C@H](CC(C)C)NC(=O)[C@@H](NC(=O)[C@H](CC(=O)O)NC(=O)[C@H](CCCCN)NC(=O)[C@@H](NC(=O)[C@@H](NC(=O)[C@@H]1CCCN1C(=O)[C@@H]1CCCN1C(=O)[C@@H](NC(=O)[C@H](CCCCN)NC(=O)[C@@H](N)Cc1ccccc1)[C@@H](C)CC)[C@@H](C)CC)C(C)C)[C@@H](C)O)C(=O)N[C@@H](C)C(=O)NCC(=O)N[C@H](C(=O)N[C@@H](CCSC)C(=O)NCC(=O)N[C@@H](CCC(N)=O)C(=O)O)C(C)C [FKIPPIVKDTLKKFFKGGIAGVMGQ]
MIC [1]: 5 µM (≈ 13.6 µg/mL) | MIC [6]: 20 µM (≈ 54.4 µg/mL)

Compound: CC[C@H](C)[C@@H]1NC(=O)[C@H](C)NC(=O)[C@@H](NC(=O)[C@H](Cc2ccccc2)NC(=O)[C@@H](NC(=O)[C@@H](NC(=O)[C@@H]2CCCN2C(=O)[C@@H](NC(=O)[C@@H](NC(=O)[C@H](CCCCN)NC(=O)[C@H](C)NC(=O)[C@H](C)NC(=O)[C@@H](NC(=O)[C@H](CCCN=C(N)N)NC(=O)[C@H](CC(C)C)NC(=O)[C@@H](NC(=O)[C@H](C)NC(=O)[C@@H]2CCCN2C(=O)[C@H](CC(C)C)NC(=O)[C@@H](N)Cc2ccccc2)C(C)C)C(C)C)[C@@H](C)CC)C(C)C)[C@@H](C)O)C(C)C)CSSC[C@@H](C(=O)O)NC(=O)[C@H](CCCCN)NC(=O)[C@H](CCCCN)NC(=O)[C@H](CO)NC1=O [FLPAVLRVAAKIVPTVFCAISKKC]
MIC [1]: 3.11 µM (≈ 7.99 µg/mL) | MIC [6]: 24.3 µM (≈ 62.5 µg/mL)

Compound: CC[C@H](C)[C@H](NC(=O)[C@H](CCCN=C(N)N)NC(=O)[C@H](Cc1c[nH]c2ccccc12)NC(=O)[C@@H](NC(=O)[C@H](CCCN=C(N)N)NC(=O)[C@H](Cc1c[nH]c2ccccc12)NC(=O)[C@@H](N)Cc1ccccc1)[C@@H](C)CC)C(=O)N[C@@H](Cc1c[nH]c2ccccc12)C(=O)N[C@@H](CCCN=C(N)N)C(N)=O [FWRIWRIWR]
MIC [7]: ≥ 44.1 µM

Compound: NC(=O)[C@H](CCCN=C(N)N)NC(=O)[C@H](CCCN=C(N)N)NC(=O)[C@H](Cc1c[nH]c2ccccc12)NC(=O)[C@H](CCCN=C(N)N)NC(=O)[C@H](Cc1c[nH]c2ccccc12)NC(=O)[C@@H](N)Cc1ccccc1 [FWRWRR]
MIC [7]: ≥ 124 µM

Compound: CC[C@H](C)[C@H](NC(=O)CNC(=O)[C@H](Cc1ccccc1)NC(=O)[C@H](CCSC)NC(=O)[C@@H](NC(=O)[C@H](CC(N)=O)NC(=O)[C@H](CCCCN)NC(=O)[C@H](Cc1ccccc1)NC(=O)[C@H](C)NC(=O)CNC(=O)[C@H](CCCCN)NC(=O)[C@H](Cc1ccccc1)NC(=O)CN)C(C)C)C(=O)N[C@@H](C)C(=O)N[C@@H](CCCCN)C(=O)N[C@@H](CO)C(=O)N[C@@H](C)C(=O)NCC(=O)N[C@@H](CCCCN)C(=O)N[C@@H](CO)C(=O)N[C@@H](C)C(=O)N[C@@H](CC(C)C)C(=O)N[C@@H](CC(N)=O)C(=O)N[C@@H](C)C(=O)N[C@@H](CC(C)C)C(=O)N[C@@H](C)C(=O)N[C@H]1CSSC[C@@H](C(=O)O)NC(=O)[C@H](CO)NC(=O)[C@H](CCCCN)NC(=O)[C@H](CC(=O)O)NC(=O)[C@H]([C@@H](C)CC)NC(=O)[C@H](CCCCN)NC1=O [GFKGAFKNVMFGIAKSAGKSALNALACKIDKSC]
MIC [1]: 9.18 µM (≈ 31 µg/mL) | MIC [6]: 9.18 µM (≈ 31 µg/mL)

Compound: CC(C)C[C@@H]1NC(=O)CNC(=O)[C@H](CO)NC(=O)[C@H](CC(C)C)NC(=O)[C@H](C)NC(=O)[C@@H](NC(=O)[C@H](C)NC(=O)[C@@H](NC(=O)[C@H](CCCCN)NC(=O)[C@H](CCCCN)NC(=O)CNC(=O)[C@H](C)NC(=O)CNC(=O)[C@H](Cc2ccccc2)NC(=O)[C@H](CC(C)C)NC(=O)[C@H](CO)NC(=O)CNC(=O)[C@H](CC(C)C)NC(=O)[C@H](CC(C)C)NC(=O)CN)C(C)C)CSSC[C@@H](C(=O)O)NC1=O [GLLGSLFGAGKKVACALSGLC]
MIC [1]: 63.6 µM (≈ 125 µg/mL) | MIC [6]: 31.8 µM (≈ 62.4 µg/mL)

Compound: CC[C@H](C)[C@H](NC(=O)CNC(=O)[C@H](CCCN=C(N)N)NC(=O)[C@H](Cc1ccc(O)cc1)NC(=O)[C@H](CC(C)C)NC(=O)[C@H](Cc1cnc[nH]1)NC(=O)CNC(=O)[C@H](Cc1ccccc1)NC(=O)[C@@H](N)Cc1c[nH]c2ccccc12)C(=O)N[C@H](C(=O)N[C@@H](CCCCN)C(=O)N[C@H](C(=O)N[C@H](C(=O)N[C@@H](CCCCN)C(=O)N[C@@H](Cc1cnc[nH]1)C(=O)N[C@H](C(=O)N[C@@H](Cc1cnc[nH]1)C(=O)NCC(=O)N[C@@H](CC(C)C)C(=O)N[C@@H](CC(C)C)C(=O)N[C@@H](CCCCN)C(=O)NCC(=O)O)C(C)C)C(C)C)C(C)C)[C@@H](C)O [WFGHLYRGITKVVKHVHGLLKG]
MIC (Klebsiella pneumoniae): 1.2 µM (≈ 3.06 µg/mL) | MIC (Pseudomonas aeruginosa): 4.9 µM (≈ 12.5 µg/mL) | MIC [3]: 2.5 µM (≈ 6.37 µg/mL) | MIC (Acinetobacter baumannii): 1.2 µM (≈ 3.06 µg/mL) | MIC (Staphylococcus aureus): 19.6 µM (≈ 49.9 µg/mL) | MIC (Escherichia coli): 2.5 µM (≈ 6.37 µg/mL) | MIC (Enterococcus faecalis): 1.2 µM (≈ 3.06 µg/mL)
